{"source": "patent US7049069B2", "about": "“Detecting and treating reproductive tract disorders” (University of Florida, priority 2001, dated 2006)", "assay_type_in_all_cases": "cell-based, human", "key": {"[1]": {"test_system": "TNFα receptor type I expression in epithelial cells", "test": "Effect of IL-13 and IL-15 on TNFα receptor type I expression in epithelial cells", "experimental": "(§1) Cells. Uterine tissue was collected and endometrial stromal cells and their culture conditions were isolated as described previously. Tang et al., Endocrinology 135:450, 1994. The isolated glandular epithelial and stromal cells were grown as monolayers in DMEM-Ham's F-12 (1:1, v/v) supplemented with 10% fetal bovine serum (FBS). Their purity and homogeneity were determined immunocytochemically by the use of monoclonal antibodies to human desmin, smooth muscle α-actin, cytokeratin 19 and vimentin.\n(§2) To determine whether IL-13 and IL-15 alter the expression of tumor necrosis factor alpha receptor, the stromal and epitheleal cells (isolated as described in Example3) were cultured, made quiescent, and then treated with IL-13 and IL-15 at appropriate concentration added to medium containing 2% cFBS. After specific time intervals the culture condition media were collected and assay for TNF-α receptor type I as previously described (Faber et al., Obstet Gynecol 98:668–673, 2001; Chegini et al., J Soc Gynecol Invest 6. 154–157, 1999) using ELISA and comparison to known concentrations of standard (R & D system)."}, "[2]": {"test_system": "TNFα receptor type I expression in stromal cells", "test": "Effect of IL-13 and IL-15 on TNFα receptor type I expression in stromal cells", "experimental": "as §1, §2"}, "[3]": {"test_system": "endometrial epithelial cells", "test": "3H-thymidine incorporation and cell proliferation (MTT) assay, epithelial cells", "experimental": "as §1\n(§3) ^3H-Thymidine Incorporation and Cell Proliferation Assay. Endometrial epithelial and stromal cells were cultured either in 24- or 96-well dishes at approximate density of 2.5×10^5 and 2.5×10^4 cell/well, respectively, in the presence of 10% FBS for 48 h, they were then made quiescent in serum-free condition for 48 h as previously described. Tang et al., supra. The quiescent cells were incubated either in serum-free, or 2% FBS supplemented media, in the presence of appropriate concentrations of IL-13 and/or IL-15 and 2 μCi/ml ^3H-thymidine for 48 h. The rate of incorporated ^3H-thymidine determined as previously described. Tang et al., supra. Cell proliferation assays were preformed by seeding epithelial and stromal cells in 96-well microplates or 24 well dishes, respectively, as described above and cultured in the presence of appropriate concentrations of IL-13 and IL-15 in the presence or absence of 2% FBS. After 48 h the cells were washed and incubated with a dye solution composed of 3-(4,5-dimethylthiazol-2-yl)-2,5-diphenyltetrazolium bromide (MTT) for 4 h at 37° C., solubilized using Promega Cell-Titer assay, and the optical density was measured using Thermomax microplate reader (Molecular Devices) at 570 nm as previously described (Tang et al., supra)."}, "[4]": {"test_system": "IL-13 expression in endometrial stromal cells", "test": "Effect of ovarian steroids on IL-13 expression in endometrial stromal cells (quantitative RT-PCR, ELISA)", "settings": "for IL-13 expression, mRNA and protein level (summary statement): endometrial stromal cells; for IL-13 expression compared to control cells: stromal cells, various time points (e.g. 4, 6, 24 and 36 h after steroid addition)", "experimental": "(§4) Cells. Uterine tissue was collected and endometrial stromal cells and their culture conditions were isolated as described previously. Tang et al., Endocrinology 135:450, 1994. The isolated glandular epithelial and stromal cells were grown as monolayers in DMEM-Ham's F-12 (1:1, v/v) supplemented with 10% fetal bovine serum (FBS). Their purity and homogeneity were determined immunocytochemically by the use of monoclonal antibodies to human desmin, smooth muscle α-actin, cytokeratin 19 and vimentin. Ovarian Steroids. To determine the effect of ovarian steroids regulate IL-13 and IL-15 expression in endometrial epithelial and stromal cells, cells were subcultured in 6-well dishes at an approximate density of at 10^6 cells/well, and incubated with phenol-free media containing 10% charcoal-stripped FBS for 48 hrs. The cells were made quiescent under a serum-free condition for 24 hrs, and then treated with E2 (17 β estradiol), MPA (medroxyprogesterone acetate) or E2+MPA either alone or in appropriate combinations, added to phenol-free medium containing 2% charcoal-stripped FBS (cFBS) (Hyclone, Logan, Utah). The level of IL-13 and IL-15 mRNA and protein was determined as described above after appropratie time intervals using quantitative RT-PCR and ELISA."}, "[5]": {"test_system": "IL-13 expression in endometrial epithelial cells", "test": "Effect of ovarian steroids on IL-13 expression in endometrial epithelial cells (quantitative RT-PCR, ELISA)", "settings": "for IL-13 expression, mRNA and protein level (summary statement): endometrial epithelial cells; for IL-13 expression compared to control cells: epithelial cells", "experimental": "as §4"}, "[6]": {"test_system": "endometrial stromal cells", "test": "3H-thymidine incorporation and cell proliferation (MTT) assay, stromal cells", "experimental": "as §1, §3"}, "[7]": {"test_system": "IL-15 expression in endometrial epithelial cells", "test": "Effect of ovarian steroids on IL-15 expression in endometrial epithelial cells (quantitative RT-PCR, ELISA)", "settings": "for IL-15 expression, mRNA and protein level (summary statement): endometrial epithelial cells; for IL-15 expression: epithelial cells, various time points", "experimental": "as §4"}, "[8]": {"test_system": "IL-15 expression in endometrial stromal cells", "test": "Effect of ovarian steroids on IL-15 expression in endometrial stromal cells (quantitative RT-PCR, ELISA)", "settings": "for IL-15 expression, mRNA and protein level (summary statement): endometrial stromal cells; for IL-15 expression: stromal cells, various time points", "experimental": "as §4"}}, "data": [{"compound": "IL-13: cytokine interleukin-13 added to stromal and epithelial cell cultures", "values": [{"measurement": "TNFα receptor type I mRNA production", "setting": "[1]; 2, 4 and 6 h", "value": "increased"}, {"measurement": "TNFα receptor type I protein expression", "setting": "[1]; 36 h", "value": "statistically significant increase"}, {"measurement": "TNFα receptor type I protein expression", "setting": "[2]; 24 and 36 h", "value": "statistically significant increase"}]}, {"compound": "CC(=O)O[C@]1(C(C)=O)CC[C@H]2[C@@H]3C[C@H](C)C4=CC(=O)CC[C@]4(C)[C@H]3CC[C@@]21C", "note": "[MPA, medroxyprogesterone acetate]", "values": [{"measurement": "3H-thymidine incorporation compared to control cells", "setting": "[3]", "value": "modulated"}, {"measurement": "cell proliferation compared to control cells", "setting": "[3]", "value": "modulated"}, {"measurement": "IL-13 expression, mRNA and protein level (summary statement)", "setting": "[4]", "value": "modulate"}, {"measurement": "IL-13 expression compared to control cells", "setting": "[4]", "value": "statistically significant increase"}, {"measurement": "IL-13 expression, mRNA and protein level (summary statement)", "setting": "[5]", "value": "modulate"}, {"measurement": "IL-13 expression compared to control cells", "setting": "[5]; 24 and 36 h", "value": "statistically significant increase"}, {"measurement": "IL-13 expression compared to control cells", "setting": "[5]; 6 h", "value": "statistically significant increase"}, {"measurement": "3H-thymidine incorporation compared to control cells", "setting": "[6]", "value": "modulated"}, {"measurement": "cell proliferation compared to control cells", "setting": "[6]", "value": "modulated"}, {"measurement": "IL-15 expression, mRNA and protein level (summary statement)", "setting": "[7]", "value": "modulate"}, {"measurement": "IL-15 expression", "setting": "[7]", "value": "statistically significant increase"}, {"measurement": "IL-15 expression, mRNA and protein level (summary statement)", "setting": "[8]", "value": "modulate"}, {"measurement": "IL-15 expression", "setting": "[8]", "value": "statistically significant increase"}]}, {"compound": "IL-15: cytokine interleukin-15 added to stromal and epithelial cell cultures", "values": [{"measurement": "TNFα receptor type I mRNA expression compared to control cells", "setting": "[2]; 6 h", "value": "marked increase"}, {"measurement": "TNFα receptor type I protein expression", "setting": "[2]; 36 h", "value": "statistically significant increase"}]}, {"compound": "C[C@]12CC[C@@H]3c4ccc(O)cc4CC[C@H]3[C@@H]1CC[C@@H]2O", "note": "[E2, 17 β estradiol]", "values": [{"measurement": "3H-thymidine incorporation compared to control cells", "setting": "[3]", "value": "modulated"}, {"measurement": "cell proliferation compared to control cells", "setting": "[3]", "value": "modulated"}, {"measurement": "IL-13 expression, mRNA and protein level (summary statement)", "setting": "[4]", "value": "modulate"}, {"measurement": "IL-13 expression compared to control cells", "setting": "[4]", "value": "statistically significant increase"}, {"measurement": "IL-13 expression, mRNA and protein level (summary statement)", "setting": "[5]", "value": "modulate"}, {"measurement": "IL-13 expression compared to control cells", "setting": "[5]; 24 and 36 h", "value": "statistically significant increase"}, {"measurement": "3H-thymidine incorporation compared to control cells", "setting": "[6]", "value": "modulated"}, {"measurement": "cell proliferation compared to control cells", "setting": "[6]", "value": "modulated"}, {"measurement": "IL-15 expression, mRNA and protein level (summary statement)", "setting": "[7]", "value": "modulate"}, {"measurement": "IL-15 expression", "setting": "[7]", "value": "statistically significant increase"}, {"measurement": "IL-15 expression, mRNA and protein level (summary statement)", "setting": "[8]", "value": "modulate"}, {"measurement": "IL-15 expression", "setting": "[8]", "value": "statistically significant increase"}]}]}
